Earlier results, collected in patent US20110015074A1, “STABILIZED HERBICIDAL FORMULATIONS AND METHODS OF USE” (priority 2009, published 2011).

Conditions: sunlight (UV), after the end of the second year of storage period

Compound: CCSC(C)CC1CC(=O)C(/C(CC)=N/OC/C=C/Cl)=C(O)C1 (racemic) [clethodim (technical), (±)-2-[(E)-1-[(E)-3-Chloroallyloxyimino]propyl]-5-[2-(ethylthio)propyl]-3-hydroxycyclohex-2-enone]
- loss or degradation of clethodim: 42.33 % active ingredient
